According to US9616107B2, “Therapy for kidney disease and/or heart failure” (priority 2011, dated 2017):
“Also recorded” adds a separate entry of the source. Read-outs that look alike come from different tables or passages of the source. Marks after values point to notes of the source that are not given here. Ends that are not written are not given here.

How the values were obtained:
[1] = Toxicology study of VD in canines: 5-day continuous subcutaneous infusion, plasma VD by radioimmunoassay, clinical observations; assay type: in vivo; conditions: for half-life / AUC(0-t) / AUC / Tmax / Cmax / t1/2: beagle; for AUC(0-t): data through 122 hours; for average steady state peak concentrations: n=1 per sex
Experimental: VD was administered to canines via a subcutaneous delivery route. The dosing was performed at a high level to assess the toxicity of VD and to determine if a lethal dosing amount of the VD can be reached by subcutaneous administration.
VD was administered subcutaneously to canines using a Medtronic Paradigm® infusion pump (model MMT772) over a period of 5 days. VD was obtained as an acetate salt (VD-acetate) from Bachem (lot 2502022) and prepared in Tris/Glycerin/m-cresol buffer at a concentration of 15 mg/mL. The Tris/Glycerin/m-cresol buffer was prepared by mixing 16.0 g glycerol, 6.05 g tris-(hydroxymethyl)-aminomethane (“Tris”), 2.50 g meta cresol in a 1.00 L volumetric flask. Approximately 900 mL nanopure water was added to the volumetric flask and the mixture was magnetically stirred to reach complete dissolution. 4 normal hydrochloric acid was used to adjust pH to […] at 25° C.
VD was administered to one male and one female beagle canine at varying dosing amounts. Each canine received a first dosage level for 5 consecutive days followed by a 2-day washout period. Then, the same canines received a second, higher dosage level for an additional 5 consecutive days.
Prior to the beginning of dosing with VD (Day 0), the canines were placed in a sling and the dose site on the dorsolateral thorax was shaved. The shaved area was swabbed with 70% isopropyl alcohol and allowed to dry. DuraPrep™ (3M) was then applied and allowed to dry for 3 minutes. The catheter of the infusion set (Medtronic Silhouette Paradigm® Infusion Set MMT-378) was placed subcutaneously and perpendicular to the spine, and attached to the skin. The extension set was then attached to a previously weighed reservoir filled with VD at a concentration of 15 mg/mL in the Tris/Glycerin/m-cresol buffer. The reservoir was inserted into the pump located in a jacket pocket and dosing was commenced. The jacket was then secured and a collar was placed on each canine. Every day during the 5-day period, the reservoirs were exchanged with new filled reservoirs at approximately the same time each day.
At the end of the first 5-day dosing period, the infusion sets and jackets were removed, the area where the catheter was placed was marked, and the animals were allowed a 2-day washout period prior to the next treatment. For the next treatment at the second dosing amount, a new infusion site was chosen on the skin, and the pump was prepared as before.
The daily dosage level during the first 5-day period (Group 1) was 1.44 mg/(kg·day) (or 1000 ng/(kg·min)) for each canine corresponding with a dosage volume of 0.096 ml/(kg·day). The total dose delivered to each canine over the first 5-day period was 7.20 mg/kg. […] Following the 2-day washout period, the daily dosage level was increased to 2.88 mg/(kg·day) (or 2000 ng/(kg·min)) for each canine corresponding with a dosage volume of 0.192 ml/(kg·day) during the second 5-day period (Group 2). The total dose delivered to each canine over the second 5-day period was 14.4 mg/kg.
All animals were observed twice daily during the first and second 5-day periods for mortality and moribund appearance. Clinical examinations were also performed daily for the animals after dosing began. Detailed physical examinations were conducted on Day 0 prior to dosing and on study Day 5 after the pumps and jackets were removed from the canines. Individual body weights were recorded twice weekly during a 7-day pretest period, on study Day 0 prior to dosing and study Day 5 after the pumps and jackets were removed from the canines. Body weights and body weight changes were calculated for the corresponding intervals. Individual food consumption was recorded daily during the pretest period and throughout the study.
Blood samples for determination of plasma drug concentration were collected at 2, 4, 24 and 96 hours after the beginning of infusion, immediately prior to the end of infusion on Day 5, and 0.5, 1, 1.5, and 2 hours after the end of dosing. […]

[2] = assay type: physicochemical
Text: Elliotts B® Solution is a sterile, non-pyrogenic, isotonic buffer that is approved by the United States Food and Drug Administration (FDA) for intrathecal administration of methotrexate sodium and cytarabine. Elliotts B® Solution will be used as a diluent for VD since it provides the appropriate isotonicity and pH attributes desired for SC administration. […] The detailed contents of Elliots B® Solution are provided in the Trial Dispensing Protocol. Storage conditions of the raw material, Elliotts B® Solution, as well as the reconstitution method will be supplied in a Pharmacy Guideline provided during the study.

Sequence: EVVPPQVLSEPNEEAGAALSPLPEVPPWTGEVSPAQR [VD, Vessel Dilator]
- half-life ([1]; dog, in vivo, t1/2): 44.1 min
- AUC(0-t) ([1]; dog, in vivo, female canine, 1.44 mg/kg/day (7.20 mg/kg), SC infusion 5 days): 34700 ng·h/mL
- AUC ([1]; dog, in vivo, female canine, 1.44 mg/kg/day (7.20 mg/kg), SC infusion 5 days, τ 120 hours, read-out: AUCτ (AUGτ [sic])): 34400 ng·h/mL
- Tmax ([1]; dog, in vivo, female canine, 1.44 mg/kg/day (7.20 mg/kg), SC infusion 5 days, hours after start of infusion, read-out: Tmax): 96 h
- AUC ([1]; dog, in vivo, female canine, 2.88 mg/(kg·day), maximum tolerated dose not determined, read-out: AUC that a maximum tolerated dose would exceed): > 63300 ng·h/mL
- Cmax ([1]; dog, in vivo, female canine, 2.88 mg/(kg·day), maximum tolerated dose not determined, read-out: Cmax that a maximum tolerated dose would exceed): > 579 ng/mL
- AUC(0-t) ([1]; dog, in vivo, female canine, 2.88 mg/kg/day (14.4 mg/kg), SC infusion 5 days): 64100 ng·h/mL
- AUC ([1]; dog, in vivo, female canine, 2.88 mg/kg/day (14.4 mg/kg), SC infusion 5 days, τ 120 hours, read-out: AUCτ (AUGτ [sic])): 63300 ng·h/mL
- Tmax ([1]; dog, in vivo, female canine, 2.88 mg/kg/day (14.4 mg/kg), SC infusion 5 days, hours after start of infusion, read-out: Tmax): 96 h
- Cmax ([1]; dog, in vivo, female canine, 2.88 mg/kg/day (14.4 mg/kg), SC infusion 5 days, read-out: Cmax): 579 ng/mL
- Tmax ([1]; dog, in vivo, female canine, both dosages, after start of infusion, read-out: Tmax): ~96 h
- AUC(0-t) ([1]; dog, in vivo, male canine, 1.44 mg/kg/day (7.20 mg/kg), SC infusion 5 days): 31200 ng·h/mL
- AUC ([1]; dog, in vivo, male canine, 1.44 mg/kg/day (7.20 mg/kg), SC infusion 5 days, τ 120 hours, read-out: AUCτ (AUGτ [sic])): 30800 ng·h/mL
- AUC ([1]; dog, in vivo, male canine, 2.88 mg/(kg·day), maximum tolerated dose not determined, read-out: AUC that a maximum tolerated dose would exceed): > 58200 ng·h/mL
- Cmax ([1]; dog, in vivo, male canine, 2.88 mg/(kg·day), maximum tolerated dose not determined, read-out: Cmax that a maximum tolerated dose would exceed): > 655 ng/mL
- AUC(0-t) ([1]; dog, in vivo, male canine, 2.88 mg/kg/day (14.4 mg/kg), SC infusion 5 days): 58900 ng·h/mL
- AUC ([1]; dog, in vivo, male canine, 2.88 mg/kg/day (14.4 mg/kg), SC infusion 5 days, τ 120 hours, read-out: AUCτ (AUGτ [sic])): 58200 ng·h/mL
- survival and adverse effects on weight, food consumption or behavior ([1]; both canines, 1.44 then 2.88 mg/(kg·day), 5 days each): survived to the scheduled study termination without appreciable adverse effects on weight, food consumption or behavior
- half-life ([1]; both sexes, dog, in vivo, calculated half-life for elimination of Vessel Dilator in plasma): 42 to 72 min
- Tmax ([1]; both sexes, dog, in vivo, sc): 108 h
- average steady state peak concentrations ([1]; canines, 1000 ng/kg·min constant SC dosing 5 days): 257 to 287 ng/mL
- average steady state peak concentrations ([1]; canines, 2000 ng/kg·min constant SC dosing 5 days): 485 to 527 ng/mL
- tolerance and toxicological effects of continuous subcutaneous infusion ([1]; canines, up to 2.88 mg/(kg·day)): high tolerance and no noticeable toxicological effects; also recorded: well-tolerated
- maximum tolerated dose for prolonged subcutaneous administration ([1]; canines, expected): > 2000 ng/kg·min
- effects on body weight ([1]; dog, in vivo): no effects on body weight
- effects related to food consumption ([1]; dog, in vivo): no effects related to food consumption
- fluctuation of plasma concentrations of VD ([1]; dog, in vivo): approximately 30%
- potential VD administration-related clinical observations ([1]; dog, in vivo): reddened ears and/or reddened gums
- systemic exposure to VD (AUCτ and Cmax) versus dosage ([1]; dog, in vivo, 2.88 mg/kg/day): increased proportionally with the increase in dosage
- plasma concentration up to which no toxicity issues were shown ([1]; dogs, continuous five day subcutaneous infusion): ~500 ng/mL
- t1/2 ([1]; female, dog, in vivo, sc): 1.21† h
- half-life ([1]; female, dog, in vivo, sc, t1/2): 48.1 min
- Tmax ([1]; male, dog, in vivo): 120 h
- Tmax ([1]; male, dog, in vivo, sc): 120 h
- t1/2 ([1]; male, dog, in vivo, sc): 0.793† h
- half-life ([1]; male, dog, in vivo, sc, t1/2): 44.1 min
- stability and compatibility of VD in Elliotts B Solution [2]: has been demonstrated
